Measurements published in patent US20220135526A1, “QUATERNARY AMMONIUM SALT COMPOUND, PREPARATION METHOD THEREFOR AND USE THEREOF” (WEST CHINA HOSPITAL, SICHUAN UNIVERSITY, priority 2019, published 2022).

Columns and labels:
[1] = QX314 with the addition of surfactants (Kohane, PNAS 2010); cited from earlier work
[2] = system: rat's sciatic nerve; test: Local anesthetic effect after injection near the rat sciatic nerve (von Frey stimulation; Postural Extensor Thrust for motor function); type: in vivo; conditions: SD rats, 0.5 mL near sciatic nerve, compounds 20 mmol/mL; for Duration of motor block: Postural Extensor Thrust; for Duration of motor block / Duration of sensory block: levobupivacaine 0.75%, lidocaine 2%; for Local anesthesia onset time: levobupivacaine 0.75% (22 mmol/L), lidocaine 2% (74 mmol/L); for Duration of sensory block: von Frey
Protocol: Dosage: for lidocaine group, lidocaine was formulated with distilled water into a solution at the concentration of 2% (74 mmol/L); for levobupivacaine group, levobupivacaine was formulated with distilled water into a solution at the concentration of 0.75% (22 mmol/L); the compound of the present invention was formulated with distilled water into a solution at the concentration of […].
The injection volume for each rat was 0.5 mL, which was guided by a nerve locator and injected near the rat's sciatic nerve. Using von Frey stimulator, the rats were stimulated the soles of the feet in the injected side, to observe the effect of local anesthesia. Meanwhile, Postural Extensor Thrust (PET) was used to evaluate the motor function of the rat: the rat was lifted vertically and the hindlimb in the injected side pedaled on the platform of the electronic balance. […] When the limb was completely paralyzed, the reading was the limb's own weight, about 20 g. If the measured value was more than half of the difference between the baseline and the limb weight, the motor function was regarded as recovery, and if the value was […], the motor function was regarded as loss.

[3] = system: back skin of SD rat; test: Local anesthetic effect by subcutaneous infiltration (back skin, Von Frey fiber 100 g); type: in vivo; conditions: SD rats, 0.5 mL subcutaneous in saline; compounds 6 mmol/L, controls 0.75% (22 mmol/L) and 2% (74 mmol/L)
Protocol: After the back of SD rat weighing 250-300 g (half female and half male) was shaved and disinfected, a circle with a diameter of about 1.5 cm was drawn on the side of the exposed back, and the circle is divided into 6 equal parts. […] Among the Von Frey fiber yarns, the one with a strength of 100 g was bound to the needle for local skin stimulation. One minute After the drug was injected, the above method was used to stimulate in 6 divisions. […] If back skin contraction was observed, the local anesthetic effect was considered as loss. […] Each compound was tested with 10 rats.

Row | Structure (SMILES) | duration of local anesthesia [1] | Duration of motor block [2] | Local anesthesia onset time [2] | Duration of sensory block [2] | Duration of local anesthesia (median) [3] | Local anesthesia onset time (median) [3]
1 | CC[N+](CC)(CC)CC(=O)Nc1c(C)cccc1C [QX314] | more than 8 hours |  |  |  |  | 
2 | CCCCC[N+](CCCCO)(CCCCCCN1CCCCC1C(=O)Nc1c(C)cccc1C)CC(=O)Nc1c(C)cccc1C.[Br-] (centres unmarked) [Example 16 product] |  | 17 h | 5 min | 60 h | 54 h | 2 min
3 | CCCCC[N+](CCCS)(CCCCCCCCN1CCCCCCC1C(=O)Nc1c(C)cccc1C)CC(=O)Nc1c(C)cccc1C (centres unmarked) [Example 57 product] |  | 13 h | 5 min | 69 h | 85 h | 1 min
4 | CCCCCCCCCC[N+](CCCCCCCCCC)(CCOCCN1CCCCC1C(=O)Nc1c(C)cccc1C)CC(=O)Nc1c(C)cccc1C (centres unmarked) [Example 2 product] |  | 33 h | 4 min | 44 h | 44 h | 2 min
5 | CCCCCCCCCC[N+](CO)(CCOCCN1CCCCC1C(=O)Nc1c(C)cccc1C)CC(=O)Nc1c(C)cccc1C (centres unmarked) [Example 72 product] |  | 10 h | 1 min | 65 h | 72 h | 1 min
6 | CCCCC[N+](CCCCC)(CCCCCCN1CCC1C(=O)Nc1c(C)cccc1C)CC(=O)Nc1c(C)cccc1C (centres unmarked) [Example 65 product] |  | 19 h | 5 min | 59 h | 68 h | 1 min
7 | CCCCCCCC[N+](CCCCCC(=O)O)(CCCOCCCN1CCCCC1C(=O)Nc1c(C)cccc1C)CC(=O)Nc1c(C)cccc1C (centres unmarked) [Example 39 product] |  | 19 h | 3 min | 61 h | 89 h | 2 min
8 | CCCCCCC[N+](CCCCC)(CCOCCN1CCCCC1C(=O)Nc1c(C)cccc1C)CC(=O)Nc1c(C)cccc1C (centres unmarked) [Example 76 product] |  | 14 h | 3 min | 59 h | 64 h | 2 min
9 | Cc1cccc(C)c1NC(=O)C[N+]1(CCCCN2CCCCC2C(=O)Nc2c(C)cccc2C)CC(C)OC(C)C1 (centres unmarked) [Example 50 product] |  | 13 h | 5 min | 56 h | 56 h | 2 min
